Structures can show the parent of a compound that is named as a salt.
target: T1, human V1a receptor (Homo sapiens, UniProt P37288); assay: human V1a receptor binding studies (3H-Vasopressin, SPA beads); settings: membranes of HEK293 cells transiently transfected with human V1a receptor, Ki calculated by Cheng-Prussoff equation, read-out: pKi hV1a (converted)
T1 construct: expressed in transfected cells; host or cells: HEK293 cells, transiently transfected; membrane preparation
Description: The human V1a receptor was cloned by RT-PCR from total human liver RNA. The coding sequence was subcloned in an expression vector after sequencing to confirm the identity of the amplified sequence. […] Cell membranes were prepared from HEK293 cells transiently transfected with the expression vector and grown in 20 liter fermenters with the following protocol.
50 g of cells were resuspended in 30 ml freshly prepared ice cold Lysis buffer (50 mM HEPES, 1 mM EDTA, 10 mM MgCl2 adjusted to pH=7.4+complete cocktail of protease inhibitor (Roche Diagnostics)); homogenized with Polytron for 1 min; and sonicated on ice for 2×2 minutes at 80% intensity (Vibracell sonicator). The preparation was centrifuged 20 min at 500 g at 4° C., the pellet was discarded and the supernatant centrifuged 1 hour at 43,000 g at 4° C. (19,000 rpm). The pellet was resuspended in 12.5 ml Lysis buffer+12.5 ml Sucrose 20% and homogenized using a Polytron for 1-2 min. The protein concentration was determined by the Bradford method and aliquots were stored at −80° C. until use. For binding studies 60 mg Yttrium silicate SPA beads (Amersham) were mixed with an aliquot of membrane in binding buffer (50 mM Tris, 120 mM NaCl, 5 mM KCl, 2 mM CaCl2, 10 mM MgCl2) for 15 minutes with mixing. 50 ul of bead/membrane mixture was then added to each well of a 96 well plate, followed by 50 ul of 4 nM 3H-Vasopressin (American Radiolabeled Chemicals). For total binding measurement 100 ul of binding buffer were added to the respective wells, for non-specific binding 100 ul of 8.4 mM cold vasopressin and for compound testing 100 ul of a serial dilution of each compound in 2% DMSO. The plate was incubated Ih at room temperature, centrifuged 1 min at 1000 g and counted on a Packard Top-Count. Non-specific binding counts were subtracted from each well, and data was normalized to the maximum specific binding set at 100%. To calculate an IC 50 the curve was fitted using a non-linear regression model (XLfit), and the Ki was calculated using the Cheng-Prussoff equation.

T1 sequence (P37288 whole entry): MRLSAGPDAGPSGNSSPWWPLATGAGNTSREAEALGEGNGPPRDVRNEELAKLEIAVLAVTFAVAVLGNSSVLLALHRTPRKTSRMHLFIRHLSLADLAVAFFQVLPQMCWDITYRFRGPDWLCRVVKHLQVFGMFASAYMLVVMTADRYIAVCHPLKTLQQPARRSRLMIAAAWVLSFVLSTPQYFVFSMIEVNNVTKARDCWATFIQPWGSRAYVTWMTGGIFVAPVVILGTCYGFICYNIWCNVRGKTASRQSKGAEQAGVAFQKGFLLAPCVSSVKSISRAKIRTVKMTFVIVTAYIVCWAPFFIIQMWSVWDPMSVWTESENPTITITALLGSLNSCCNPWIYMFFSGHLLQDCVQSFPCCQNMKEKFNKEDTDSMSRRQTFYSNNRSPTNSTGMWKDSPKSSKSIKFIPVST

`O=C(c1c[nH]c2cc(Cl)ccc12)N1CCC(N2C(=O)Cc3ccccc32)CC1` [Example 1, 1-[1-(6-Chloro-1H-indole-3-carbonyl)-piperidin-4-yl]-1,3-dihydro-indol-2-one] and `Cc1[nH]c2cc(Cl)ccc2c1C(=O)N1CCC(N2C(=O)Cc3ccccc32)CC1` [Example 8, 1-[1-(6-Chloro-2-methyl-1H-indole-3-carbonyl)-piperidin-4-yl]-1,3-dihydro-indol-2-one] are within 1.5-fold of each other in Ki: 8.91 nM for the first, 12.6 nM for the second.

First: O=C(c1cn(Cc2cc(F)cc(F)c2)c2cc(Cl)ccc12)N1CCC(N2C(=O)Cc3ccccc32)CC1 [Example 2, 1-{1-[6-Chloro-1-(3,5-difluoro-benzyl)-1H-indole-3-carbonyl]-piperidin-4-yl}-1,3-dihydro-indol-2-one]
Second: CNCCn1cc(C(=O)N2CCC(N3C(=O)Cc4ccccc43)CC2)c2ccc(Cl)cc21 [Example 14, 1-{1-[6-Chloro-1-(2-methylamino-ethyl)-1H-indole-3-carbonyl]-piperidin-4-yl}-1,3-dihydro-indol-2-one hydrochloride]
The Ki of the first is 2.6-fold lower: 2.57 nM for the first, 6.61 nM for the second.

`CNC(=O)Cn1cc(C(=O)N2CCC(N3C(=O)Cc4ccccc43)CC2)c2ccc(Cl)cc21` [Example 3, 2-{6-Chloro-3-[4-(2-oxo-2,3-dihydro-indol-1-yl)-piperidine-1-carbonyl]-indol-1-yl}-N-methyl-acetamide] and `CN(C)C(=O)Cn1cc(C(=O)N2CCC(N3C(=O)Cc4ccccc43)CC2)c2ccc(Cl)cc21` [Example 4, 2-(6-Chloro-3-{[4-(2-oxo-2,3-dihydro-1H-indol-1-yl)piperidin-1-yl]carbonyl}-1H-indol-1-yl)-N,N-dimethylacetamide] are within 1.5-fold of each other in Ki: 1.82 nM for the first, 1.29 nM for the second.

Compared with `CCN(CC)C(=O)Cn1cc(C(=O)N2CCC(N3C(=O)Cc4ccccc43)CC2)c2ccc(Cl)cc21` [Example 5, 2-{6-Chloro-3-[4-(2-oxo-2,3-dihydro-indol-1-yl)-piperidine-1-carbonyl]-indol-1-yl}-N,N-diethyl-acetamide], `CN(C)CCn1cc(C(=O)N2CCC(N3C(=O)Cc4ccccc43)CC2)c2ccc(Cl)cc21` [Example 15, 1-{1-[6-Chloro-1-(2-dimethylamino-ethyl)-1H-indole-3-carbonyl]-piperidin-4-yl}-1,3-dihydro-indol-2-one] is 5.6-fold lower in Ki: 11.7 nM for the first, 2.09 nM for the second.

Compared with `CS(=O)(=O)NCCn1cc(C(=O)N2CCC(N3C(=O)Cc4ccccc43)CC2)c2ccc(Cl)cc21` [Example 6, N-[2-(6-Chloro-3-{[4-(2-oxo-2,3-dihydro-1H-indol-1-yl)piperidin-1-yl]carbonyl}-1H-indol-1-yl)ethyl]methanesulfonamide], `CC(=O)NCCn1cc(C(=O)N2CCC(N3C(=O)Cc4ccccc43)CC2)c2ccc(Cl)cc21` [Example 7, N-[2-(6-Chloro-3-{[4-(2-oxo-2,3-dihydro-1H-indol-1-yl)piperidin-1-yl]carbonyl}-1H-indol-1-yl)ethyl]acetamide] is 3.7-fold higher in Ki: 3.16 nM for the first, 11.7 nM for the second.

Compared with `CNC(=O)Cn1cc(C(=O)N2CCC(n3c(=O)oc4ccccc43)CC2)c2ccc(Cl)cc21` [Example 10, 2-{6-Chloro-3-[4-(2-oxo-benzooxazol-3-yl)-piperidine-1-carbonyl]-indol-1-yl}-N-methyl-acetamide], `CN(C)C(=O)Cn1cc(C(=O)N2CCC(n3nnc4ccccc43)CC2)c2ccc(Cl)cc21` [Example 13, 2-(3-{[4-(1H-Benzotriazol-1-yl)piperidin-1-yl]carbonyl}-6-chloro-1H-indol-1-yl)-N,N-dimethylacetamide] is 2.1-fold higher in Ki: 6.76 nM for the first, 14.1 nM for the second.

`CN(C)CCn1cc(C(=O)N2CCC(n3nnc4ccccc43)CC2)c2ccc(Cl)cc21` [Example 17, (4-Benzotriazol-1-yl-piperidin-1-yl)-[6-chloro-1-(2-dimethylamino-ethyl)-1H-indol-3-yl]-methanone] and `CN1CCn2c(c(C(=O)N3CCC(n4nnc5ccccc54)CC3)c3ccc(Cl)cc32)C1` [Example 18, (4-Benzotriazol-1-yl-piperidin-1-yl)-(7-chloro-2-methyl-1,2,3,4-tetrahydro-pyrazino[1,2-a]indol-10-yl)-methanone] are within 1.5-fold of each other in Ki: 19.5 nM for the first, 20.9 nM for the second.

From patent publication US20080161315A1, “INDOLES” (priority 2006, published 2008)
